Reference: patent publication US11964981B1, “Substituted pyrimido[4,5-b]indoles as CK2 inhibitors” (KING FAISAL UNIVERSITY, priority 2023, dated 2024)

Experiments:
MIAPaCa-2 (pancreas) = assay: In vitro cytotoxic activity MTT assay, MIAPaCa-2; type: cell-based; settings: Homo sapiens, MIA PaCa-2; MIAPaCa-2 (pancreas) cells, exposed for 96 hours; read-out: IC50, concentration of compound eliciting a 50% inhibition of cell proliferation
Method: (§1) Compounds 1-16 were screened for their in vitro cytotoxic activity utilizing a 3-(4,5-dimethyl-thiazol-2-yl)-2,5-diphenyltetrazolium bromide (MTT) assay against selected cancer human cell lines consisting of PC3 (prostate), HCT116 (colon), A375 (melanoma), H1299 (lung), MIAPaCa-2 (pancreas), HL60 (leukemia), MCF7 (breast), MDA-MB-231 (breast) (T. Mosmann, J. Immunol. Meth., 1983, 65, 55-63). The cells were cultured at 37° C. in RMPI1640 medium supplemented with 10% fetal bovine serum, 50 IU/mL penicillin, and 50 μg/mL streptomycin in a 5% CO2 incubator. All cells were sub-cultured 3 times/week by trypsinisation. Viable cells were seeded and allowed to adhere for 12 h before a test drug was added in 96-well plates at an initial density of 1.0×10^5 cells/mL. Tumor cell lines were separately exposed to various concentrations of the tested compounds followed by incubation at a temperature of 37° C. during 96 h inside a medium of fresh RMPI 1640. Cells were subsequently incubated at 37° C. using MTT at 0.5 mg/mL during 4 hours. After removal of supernatant, formazan crystals were dissolved in isopropanol and the optical density was measured at 570 nm. CX-4945 was used as a positive control.

A375 (melanoma) = assay: In vitro cytotoxic activity MTT assay, A375; type: cell-based; settings: Homo sapiens, A-375; A375 (melanoma) cells, exposed for 96 hours; read-out: IC50, concentration of compound eliciting a 50% inhibition of cell proliferation
Method: as §1

H1299 (lung) = assay: In vitro cytotoxic activity MTT assay, H1299; type: cell-based; settings: Homo sapiens, NCI-H1299; H1299 (lung) cells, exposed for 96 hours; read-out: IC50, concentration of compound eliciting a 50% inhibition of cell proliferation
Method: as §1

MCF7 (breast) = assay: In vitro cytotoxic activity MTT assay, MCF7; type: cell-based; settings: Homo sapiens; MCF7 (breast) cells, exposed for 96 hours; read-out: IC50, concentration of compound eliciting a 50% inhibition of cell proliferation
Method: as §1

PC3 (prostate) = assay: In vitro cytotoxic activity MTT assay, PC3; type: cell-based; settings: Homo sapiens, Prostate cell; PC3 (prostate) cells, exposed for 96 hours; read-out: IC50, concentration of compound eliciting a 50% inhibition of cell proliferation
Method: as §1

HCT116 (colon) = assay: In vitro cytotoxic activity MTT assay, HCT116; type: cell-based; settings: Homo sapiens, HCT-116; HCT116 (colon) cells, exposed for 96 hours; read-out: IC50, concentration of compound eliciting a 50% inhibition of cell proliferation
Method: as §1

HL60 (leukemia) = assay: In vitro cytotoxic activity MTT assay, HL60; type: cell-based; settings: Homo sapiens, HL-60; HL60 (leukemia) cells, exposed for 96 hours; read-out: IC50, concentration of compound eliciting a 50% inhibition of cell proliferation
Method: as §1

MDA-MB-231 (breast) = assay: In vitro cytotoxic activity MTT assay, MDA-MB-231; type: cell-based; settings: Homo sapiens; MDA-MB-231 (breast) cells, exposed for 96 hours; read-out: IC50, concentration of compound eliciting a 50% inhibition of cell proliferation
Method: as §1

recombinant human CK2 = target: T1, recombinant human CK2 (Homo sapiens, UniProt P68400); assay: CK2 Kinase Assay (radiometric, 33P-ATP); type: biochemical; settings: final ATP concentration 15 μM, 10 min at 30° C., eight concentrations; read-out: protein kinase CK2 IC50
T1 construct: purchased Millipore
Method: CK2 Kinase Assay was conducted using the protocol as described in Pierre F. et al; J. Med. Chem. 2011, 54, 635-654. The tested compounds in aqueous solution were added at a volume of 10 μL to a reaction mixture comprising 10 μL of assay dilution buffer (ADB; 20 mM MOPS, pH 7.2, 25 mM β-glycerol phosphate, 5 mM EGTA, 1 mM sodium orthovanadate, and 1 mM dithiothreitol), 10 μL of substrate peptide (RRRDDDSDDD, dissolved in ADB at a concentration of 1 mM), 10 μL of recombinant human CK2 (RROP-holoenzyme, 25 ng dissolved in ADB; Millipore). Reactions were initiated by the addition of 10 μL of ATP solution (90% 75 mMMgCl2, 75 μM ATP (final ATP concentration:15 μM) dissolved in ADB; 10% [γ-33P] ATP (stock 1 mCi/100 μL; 3000 Ci/mmol (Perkin-Elmer) and maintained for 10 min at 30° C. The reactions were quenched with 100 μL of 0.75% phosphoric acid and then transferred to and filtered through a phosphor cellulose filter plate (Millipore). After washing each well five times with 0.75% phosphoric acid, the plate was dried under vacuum for 5 min and, following the addition of 15 μL of scintillation fluid to each well, the residual radioactivity was measured using a Wallac luminescence counter. The IC50 values were derived from eight concentrations of test inhibitors.

T1 sequence (P68400 whole entry): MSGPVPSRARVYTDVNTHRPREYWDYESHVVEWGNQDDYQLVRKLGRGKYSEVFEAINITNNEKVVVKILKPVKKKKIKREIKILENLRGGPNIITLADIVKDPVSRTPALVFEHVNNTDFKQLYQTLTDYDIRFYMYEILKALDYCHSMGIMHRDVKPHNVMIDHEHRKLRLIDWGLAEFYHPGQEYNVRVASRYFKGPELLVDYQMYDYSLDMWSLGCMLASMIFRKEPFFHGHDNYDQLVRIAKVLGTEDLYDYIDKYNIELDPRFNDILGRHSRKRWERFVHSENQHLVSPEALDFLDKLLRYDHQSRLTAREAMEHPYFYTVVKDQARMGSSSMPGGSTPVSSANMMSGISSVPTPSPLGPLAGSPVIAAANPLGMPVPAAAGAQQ
T1 sequence (P67870 whole entry partner): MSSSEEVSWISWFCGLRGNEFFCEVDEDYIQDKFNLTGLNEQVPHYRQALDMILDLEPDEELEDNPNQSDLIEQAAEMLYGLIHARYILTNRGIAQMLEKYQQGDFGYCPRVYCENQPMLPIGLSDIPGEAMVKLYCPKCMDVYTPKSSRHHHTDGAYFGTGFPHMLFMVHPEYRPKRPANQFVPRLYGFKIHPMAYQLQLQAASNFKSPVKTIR

- IC50 (recombinant human CK2): 68 nM
Compound: O=C(O)c1ccc2[nH]c3ncnc(Nc4cccc(Cl)c4)c3c2c1 [Example 1, 4-((3-chlorophenyl)amino)-9H-pyrimido[4,5-b]indole-6-carboxylic acid]
- IC50 (MIAPaCa-2 (pancreas)): 900 nM
- IC50 (A375 (melanoma)): 3300 nM
- IC50 (H1299 (lung)): 4500 nM
- IC50 (MCF7 (breast)): 4600 nM
- IC50 (PC3 (prostate)): 1400 nM
- IC50 (HCT116 (colon)): 1800 nM
- IC50 (HL60 (leukemia)): 3000 nM
- IC50 (MDA-MB-231 (breast)): 2900 nM
